# Legend:
# [1] = tested on: CCL-3/MIP1 a, CCL4/MIP1β and CXCL2/MIP2; experiment: Chemokine mRNA in microglia (QRT-PCR); assay type: cell-based, mouse; conditions: wild type microglial cells, Aβ 10 μM, 6 and 24 h
# Procedure: Immortalized murine microglia were seeded in 6 well tissue culture plates, incubated in the absence or presence of 10 μM Aβ, washed with PBS and lysed in 1 mL TRIZOL reagent (Invitrogen). RNA was purified by organic extraction. 5 μg of RNA from each sample was reverse transcribed using multiscribe reverse transcriptase (Applied Biosystems). Oligonucleotide primers were designed using the Primer3 Input PCR primer design program (version 0.4.0.) and QRT-PCR experiments were performed using an iQ Real-Time PCR Detection System (Bio-Rad) and Optical System Software (Version 2.0, Bio-Rad). Relative quantification of mRNA expression was calculated by the comparative cycle method as described by the manufacturer.
# mouse macrophages = experiment: IL-1β release from LPS-primed mouse macrophages (bone marrow-derived, B6-MCLs), ELISA; assay type: cell-based; conditions: LPS-primed bone marrow-derived macrophages of wild type mice, Aβ 1, 5 and 10 μM
# Procedure: Bone marrow derived macrophages were generated as described (Severa, M et al. Journal of Biological Chemistry 281:26188-26195 (2006)). Human PBMCs were isolated by from whole blood of healthy volunteers by density gradient centrifugation. Lysis of red blood cells was performed using red blood cell lysis buffer (Sigma). Experiments in PBMCs and macrophages were carried out at a cell density of 2×10^6 cells/ml. All primary cells and cell lines except THP-1 cells were cultured in DMEM supplemented with L-glutamine, ciprofloxacin (Cellgro, Manassas, Va.) and 10% fetal calf serum (Hyclone, Logan, Utah). THP-1 cells were cultured in RPMI supplemented with 10% fetal calf serum (Hyclone), L-glutamine, sodium pyruvate (Cellgro), and ciprofloxacin. One day prior to stimulation, THP-1 cells were differentiated using 0.5 μM PMA for three hours, washed three times and plated for stimulation. All experiments that were performed for Western blot analysis were carried out in serum free DMEM medium. ATP stimulations were carried out at 5 mM one hour prior to harvesting supernatants.
# Immortalized macrophage cell lines were generated using the previously described J2 recombinant retrovirus (carrying v-myc and v-raf/mil oncogenes) (Roberson, S. M. & Walker, W. S. Cellular immunology 116:341-351 (1988)). Briefly, primary bone marrow cells were incubated in L929 conditioned medium for 3-4 days to induce macrophage differentiation. Subsequently, cells were infected with J2 recombinant retrovirus. Cells were maintained in culture for 3-6 months slowly weaning off the percentage of L929 supernatant until cells were growing in the absence of conditioned medium.
# Macrophage phenotype was verified by surface marker expression for CD11b and F480 as well as a range of functional parameters, including responsiveness to TLR ligands and bacterial uptake. Macrophage cell lines from wild-type (C57BL6), NALP3- and ASC-deficient mice were generated and are referred to as B6-MCLs, NALP3 -MCLs and ASC-MCLs.
# Cell culture supernatants were assayed for IL-1β using ELISA kits from BD Biosciences (Franklin Lakes, NJ) according to the manufacturer's instructions. To measure intracellular IL-1β, cells were washed and subjected to three freeze thaw cycles in assay diluent.
# (§1) Stimulations were carried out in serum free DMEM medium. Microglial cells and macrophages were primed with 100 U/ml IFNγ (Griess assay, TNF ELISA, real-time quantitative PCR) or 100 ng/ml ultrapure LPS (IL-1β ELISA, FLICA, ASC-CFP microglia cell line assay, Western blot) 1-3 h prior to stimulation with Aβ, revAβ, zymosan, ATP or transfection with dAdT.
# ASC = experiment: ASC-CFP microglia cell line, ASC clustering; assay type: cell-based, mouse; conditions: LPS-primed ASC-CFP microglia, 3 h after stimulation
# From the text: Human ASC was fused to CFP using BgIII/BamHI in pEF-BOS-CFP. Subsequently, ASC-CFP was cloned using XhoI and NotI into a modified form of FUGW (FUGW-XN). FUGW-XN was modified by replacing GFP with a novel cut site that created XhoI and NotI compatible ends upon Esp3I digestion.
# Lentivirus was produced in 293T cells transfected with the FUGW based expression vector coding for ASC-CFP, lentiviral packaging plasmid containing gag, pol and rev genes (pCMV-dR8.91) and envelope plasmid (VSV-G) using TransIT-LT1 transfection reagent (Minis Bio, MIR 2300/5/6) as previously described^46. One day after transfection, medium was replaced and after one additional day of culture supernatants containing the lentivirus was removed, filtered and used to infect immortalized microglia cells.
# For experiments, ASC-CFP microglial cells were seeded in duplicate into confocal dishes, stimulated as indicated. A647-labeled cholera toxin subunit B (1:1000) was added to stain cellular membranes. Cells were subsequently imaged using confocal microscopy (Leica SP2 AOBS). Cells were fixed and 5 random fields were imaged in duplicate for quantification.
# First, we stably transduced microglial cell cultures with a fusion protein of ASC and cyan fluorescent protein (CFP). ASC forms large oligomers upon its activation, leading to visible changes in the cytoplasmic fluorescence pattern of ASC-CFP. […]
# mouse microglia = experiment: IL-1β release from LPS-primed mouse microglia (ELISA); assay type: cell-based; conditions: LPS-primed primary and immortalized mouse microglia, 10 μM
# Procedure: For primary cultures, bone marrow-derived macrophages and microglia were isolated as described^42,43 and cultured in DMEM supplemented with L-glutamine, ciprofloxacin (Cellgro, Manassas, Va.) and 10% fetal calf serum (Hyclone, Logan, Utah) Immortalized macrophage and microglial cell lines were generated using J2 recombinant retrovirus (carrying v-myc and v-raf oncogenes)^44,45. Briefly, primary bone marrow cells were incubated in L929 conditioned medium for 3-4 days to induce macrophage differentiation. Cells were then infected with J2 recombinant retrovirus and maintained in culture until cells were growing in the absence of conditioned medium. Similarly, primary mixed glial cultures were cultured until fully confluent. After two consecutive infections with J2 retrovirus, cells were maintained in normal medium until growth of microglial cells in colonies was observed. The semi-adherent colonies of microglial cells were washed off and cultured in new flasks. […] Microglial cell lines form wild type (C57/BL6), Caspase-1^−/− and IL-IR^−/− mice as well as macrophage cell lines from wild type (C57BL6), NALP3 -, IPAF- and ASC-deficient mice were generated and used for experiments as indicated.
# as §1
# Cell culture supernatants were assayed for IL-1β and TNFα using ELISA kits from R&D Systems (Minneapolis, Minn.) according to the manufacturer's instructions. Nitric oxide was measured by Griess reaction of nitrites accumulated in the supernatants using chemicals from Sigma.
substance,measurement,setting,value
Aβ 1-42 peptide,"gene expression of chemokines CCL-3/MIP1 a, CCL4/MIP1β and CXCL2/MIP2",[1],time-dependently upregulated
same,IL-1β release induced by Aβ,mouse macrophages,strong and dose-dependent IL-1β release
same,formation of fluorescent ASC-CFP clusters,ASC,brightly fluorescent clusters of ASC-CFP formed
same,IL-1β release into supernatants induced by the peptide,mouse microglia,time-dependent release of IL-1β
same,IL-1β release into supernatants induced by the peptide,mouse microglia; listed as fibrillar Aβ,early and pronounced IL-1β release
